{
  "source": "paper PMC3735122",
  "about": "(mBio, 2013)",
  "origin": "cited, not measured here",
  "tested_on": "seasonal H3N2 isolates with R292K NA mutation",
  "details": "cited from earlier work",
  "data": [
    {"compound": "CCC(CC)O[C@@H]1C=C(C(=O)O)C[C@H](N)[C@H]1NC(C)=O", "note": "[oseltamivir carboxylate]", "values": [
      {"measurement": "sensitivity of seasonal H3N2 isolates with R292K mutation", "result": "significantly reduced sensitivity"}
    ]},
    {"compound": "CCC(CC)[C@H](NC(C)=O)[C@@H]1[C@H](O)[C@@H](C(=O)O)C[C@H]1N=C(N)N", "note": "[peramivir]", "values": [
      {"measurement": "sensitivity of seasonal H3N2 isolates with R292K mutation", "result": "intermediate resistance"}
    ]},
    {"compound": "CC(=O)N[C@H]1[C@H]([C@H](O)[C@H](O)CO)OC(C(=O)O)=C[C@@H]1N=C(N)N", "note": "[zanamivir]", "values": [
      {"measurement": "sensitivity of seasonal H3N2 isolates with R292K mutation", "result": "slightly reduced sensitivity"}
    ]}
  ]
}
